Here are results for 2 compounds from paper PMC12656329, “Specific Hepatorenal Toxicity and Cross-Species Susceptibility of Eight Representative Pesticides” (Toxics, 2025).

Structures are written as SMILES. Entries after “also recorded” stand apart in the source; their conditions may differ. Read-outs that look alike come from different tables or passages of the source.

What is called IC50 is the concentration that gives 50% inhibition.

The test system of data set [1] is CCC-HEL-1 hepatocytes. Kind of data set: CCK-8 cytotoxicity assay, CCC-HEL-1. It counts as cell-based. The following applies: Homo sapiens, Hepatocyte; CCK-8, 24 h exposure. As for the experimental part:
(§1) Human embryonic kidney 293T (HEK293T) cells and rat renal NRK cells were maintained in high-glucose DMEM supplemented with 10% fetal bovine serum (FBS) and 1% penicillin–streptomycin at 37 °C under 5% CO2 until reaching 70–80%. Human liver CCC-HEL-1 cells were cultured under identical conditions but with 20% FBS, while rat normal hepatocytes were grown in high-glucose MEM containing 20% FBS and 1% penicillin–streptomycin. Stock solutions (500 g/L) of eight pesticide standards were prepared in dimethyl sulfoxide (DMSO) and stored at −20 °C. Working concentrations were freshly diluted in serum-containing culture medium prior to each experiment.
(§2) The cytotoxicity of eight pesticides on four mammalian cell lines was assessed using the Cell Counting Kit-8 (CCK-8) assay. Initially, stock solutions of each pesticide were prepared by dissolving the compound in dimethyl sulfoxide (DMSO) to a final concentration of 500 g/L. For the assay, cells were seeded into 96-well plates at a density of 2 × 10^4 cells per well in 100 µL of medium and incubated for 24 h at 37 °C under a 5% CO2 atmosphere to allow for attachment. Subsequently, the culture medium was replaced with fresh medium containing the pesticides at a series of final concentrations (0, 10, 100, 200, 400, 800, 1000, and 2500 mg/L). Pesticide working concentrations were prepared through serial dilution of the 500 g/L DMSO stock solution, resulting in variable final DMSO concentrations across treatment groups (ranging from 0.002% to 0.5% v/v). A media-only blank (no cells) was included for background absorbance correction, and a solvent control (0.1% DMSO, no pesticide) was used to account for any vehicle effects. All conditions were performed in five replicates. […] At DMSO concentrations ranging from 0.1% to 0.2%, the viability of all four cell lines remained stable above 80%. At a 1% DMSO concentration, the viability of all four cell types was around 50% or higher (Supplementary Figure S5). Following 24 h of exposure, 10 µL of CCK-8 reagent was added to each well. Absorbance Measurement: After an additional 1 h of incubation in the dark, the optical density (OD) at 450 nm was recorded using a microplate reader. Cell viability was calculated by comparing the OD values of treated groups with those of the blank control. Although some test concentrations exceeded the water solubility of the pesticides, the combination of DMSO and serum in the culture medium maintained a uniform exposure system. No precipitation was observed during the experiment, ensuring that the measured effects are attributed to the bioavailable fraction of the compound. […]
(§3) 1. Pesticide Exposure: After removing the medium, fresh medium containing gradient concentrations (0–2500 mg/L) of each pesticide was added (five replicates per concentration).
(§4) Following 24 h of exposure, 10 µL of CCK-8 reagent was added to each well.
(§5) 2. Absorbance Measurement: After 1 h of dark incubation, the OD at 450 nm was measured using a microplate reader.
(§6) 3. Cell Viability Calculation: Viability was determined by comparing the OD values of treated groups to the blank control. […]
Background: Tetrazolium dyes change colour on reduction, which living cells bring about.

The next data set relates to IAR hepatocytes. As to the kind of experiment: CCK-8 cytotoxicity assay, IAR. It counts as cell-based. To be noted: Rattus norvegicus, Hepatocyte; CCK-8, 24 h exposure. As to the method: as §1, §2, §3, §4, §5, §6
For data set [2], the system named is 293T renal cells. As to the kind of experiment: CCK-8 cytotoxicity assay, 293T. It counts as cell-based, human. The following applies: Homo sapiens, HEK-293T, 24 h, CCK-8, 24 h exposure. As to the method: as §1, §2, §3, §4, §5, §6
For a further data set, the system named is NRK renal cells. As to the kind of experiment: CCK-8 cytotoxicity assay, NRK. Format: cell-based. To be noted: Rattus norvegicus; CCK-8, 24 h exposure. As to the method: as §1, §2, §3, §4, §5, §6
Data set [3] deals with 293T renal cells. As to the kind of experiment: ELISA of toxicity biomarkers (LDH, KIM-1) in culture supernatant, 293T. To be noted: 293T cells, 24 h exposure at median lethal concentration, vs control. It counts as cell-based, human. As to the method:
The levels of hepatotoxicity biomarkers (ALT, AST, ALP) and nephrotoxicity biomarkers (KIM-1, LDH) in cell culture supernatant were quantified using commercially available ELISA kits (Cloud-Clone Corp., Wuhan, China). 100 μL of the supernatant was added to the pre-coated wells and incubated according to the manufacturer’s protocol (five replicates). After washing, the appropriate detection antibody and substrate were added, and the absorbance was measured at 450 nm using microplate reader. The concentrations of the biomarkers were determined based on standard curves.
A general note: ELISA stands for enzyme-linked immunosorbent assay.

The next data set deals with MRP2 in 293T renal cells. As to the kind of experiment: MRP2 immunofluorescence staining, 293T. To be noted: 293T cells, 24 h at IC50, immunofluorescence, vs untreated controls. Format: cell-based, human. As for the experimental part:
(§7) Cells were seeded at a density of 1 × 10^5 cells per well in immunofluorescence-specific glass-bottom dishes and allowed to adhere for 24 h. […] Following treatment, cells were fixed with 4% paraformaldehyde for 15 min at room temperature and permeabilized with 0.1% Triton X-100 for 10 min. Non-specific binding was blocked with 5% bovine serum albumin (BSA) for 1 h at room temperature. Cells were then incubated with primary antibody against MRP2 (1:300 dilution) overnight at 4 °C. After three washes with PBS, cells were treated with secondary antibody (rabbit anti-IgG, 1:600 dilution) for 1 h at room temperature and washed three times with PBS. Anti-MRP2 antibody (Abcam, ab172630) and Alexa Fluor® 488-conjugated anti-rabbit IgG secondary antibody (Cell Signaling Technology, Danvers, MA, USA, 4412) were used for immunofluorescence staining. Nuclei were counterstained with DAPI Staining Solution (C1005, 10 mL) (Beyotime Biotechnology, Shanghai, China). Fluorescent images were captured using a 10× inverted fluorescence microscope. Quantitative analysis of fluorescence intensity was performed using ImageJ software 2.1.0 (National Institutes of Health, Bethesda, MD, USA).

Data set [4] concerns four mammalian cell lines (CCC-HEL-1, 293T, IAR, NRK). As to the kind of experiment: CCK-8 cytotoxicity, statements across the four cell lines. Format: cell-based, human and rat. The following applies: CCK-8 / heatmap of OD values, cell lines as stated in the sentence. As to the method: The cytotoxicity of eight pesticides on four mammalian cell lines was assessed using the Cell Counting Kit-8 (CCK-8) assay. Initially, stock solutions of each pesticide were prepared by dissolving the compound in dimethyl sulfoxide (DMSO) to a final concentration of 500 g/L. For the assay, cells were seeded into 96-well plates at a density of 2 × 10^4 cells per well in 100 µL of medium and incubated for 24 h at 37 °C under a 5% CO2 atmosphere to allow for attachment. Subsequently, the culture medium was replaced with fresh medium containing the pesticides at a series of final concentrations (0, 10, 100, 200, 400, 800, 1000, and 2500 mg/L). Pesticide working concentrations were prepared through serial dilution of the 500 g/L DMSO stock solution, resulting in variable final DMSO concentrations across treatment groups (ranging from 0.002% to 0.5% v/v). A media-only blank (no cells) was included for background absorbance correction, and a solvent control (0.1% DMSO, no pesticide) was used to account for any vehicle effects. All conditions were performed in five replicates. […] At DMSO concentrations ranging from 0.1% to 0.2%, the viability of all four cell lines remained stable above 80%. At a 1% DMSO concentration, the viability of all four cell types was around 50% or higher (Supplementary Figure S5). Following 24 h of exposure, 10 µL of CCK-8 reagent was added to each well. Absorbance Measurement: After an additional 1 h of incubation in the dark, the optical density (OD) at 450 nm was recorded using a microplate reader. Cell viability was calculated by comparing the OD values of treated groups with those of the blank control. Although some test concentrations exceeded the water solubility of the pesticides, the combination of DMSO and serum in the culture medium maintained a uniform exposure system. No precipitation was observed during the experiment, ensuring that the measured effects are attributed to the bioavailable fraction of the compound.

For data set [5], the system named is CCC-HEL-1 hepatocytes. To be noted: CCC-HEL-1 cells, 24 h exposure at median lethal concentration, vs control.
The conditions of data set [6]: parent compound; ref [1] (Ding et al. 2023, ref 74); cited from earlier work.
The test system of the next data set is Rat. The following applies: rat, in vivo, po; cited from earlier work.
A further data set concerns Colinus virginianus. To be noted: in vivo; cited from earlier work.
For data set [7] the following is noted: ref PPDB: Pesticide Properties DataBase, cited from earlier work.
Data set [8] has as its system MRP2 in CCC-HEL-1 hepatic cells. Kind of data set: MRP2 immunofluorescence staining, CCC-HEL-1. To be noted: CCC-HEL-1 cells, 24 h at IC50, immunofluorescence. Format: cell-based, human. As for the experimental part:
as §7

On to `CCCCC(C#N)(Cn1cncn1)c1ccc(Cl)cc1` (centres unmarked) [Myclobutanil, myclobutanil], for which the IC50 was determined as 455 µg/mL with CCC-HEL-1 hepatocytes [1], 567 µg/mL with IAR hepatocytes, 458 µg/mL with 293T renal cells [2] and 588 µg/mL in the data set with NRK renal cells. Moreover, the LDH release result with 293T renal cells [3] was “significantly elevated LDH release”. The MRP2 protein level result with MRP2 in 293T renal cells is “most pronounced effect”. Besides, in [4], the “cytotoxicity (in words)” value is recorded as “strong cytotoxic effects”. The LDH level result in the data set on CCC-HEL-1 hepatocytes [5] is recorded as “LDH elevation”. Also, the “Toxicokinetic Parameter (Concentration), mean” value in data set [6] was 38.3 ng/g creatinine. Further, the “Mammals - Acute oral LD50” value in the data set with Rat was 1600 mg/kg. Also, the “Birds - Acute LD50” value with Colinus virginianus is 510 mg/kg. The “ADI - Acceptable Daily Intake” value in [7] (Rat SF=100) was 0.025 mg kg⁻¹ bw day⁻¹.
As for `CCCC1COC(Cn2cncn2)(c2ccc(Cl)cc2Cl)O1` (centres unmarked) [Propiconazole, propiconazole], the IC50 in the data set with CCC-HEL-1 hepatocytes [1] is 72.6 µg/mL; in the data set with IAR hepatocytes, 189 µg/mL; in the data set on 293T renal cells [2] it was 27.2 µg/mL; with NRK renal cells, 203 µg/mL. Further, in the data set on 293T renal cells [3], the LDH release result was “significantly increased; also recorded: significantly elevated LDH release”. For the same compound, in data set [8], the “MRP2 upregulation relative to controls” value is 1.5 fold. For the same compound, the “Mammals - Acute oral LD50” value in the data set with Rat is 550 mg/kg. The “ADI - Acceptable Daily Intake” value in data set [7] (basis species not given) is on record as 0.04 mg kg⁻¹ bw day⁻¹.
